{"source": "patent US20060141064A1", "about": "“Herbal formulation useful as local anesthetic” (priority 2004, published 2006)", "key": {"guinea pig [1]": {"test_system": "guinea pig", "assay": "Local anesthetic properties, intradermal wheal method in guinea pigs, intradermal injection (Table 2)", "type": "in vivo", "conditions": "2% w/w, n = 6", "procedure": "Intra Dermal Wheal Method in Guinea Pigs:\nThe hairs on the back of guinea pigs were shaved. The normal response of the animal with a pinprick on both sides of the back was tested with 0.2 ml of the herbal formulations were injected intradermally on the left side and 0.2 ml of a normal saline (0.9%) was injected on the right side of the back. The sides were demarcated by ink. Six pinpricks were applied at interval of 2 to 3 s. Pinpricks were repeated after every 5 min. Animals showing no squeak response to all the six pinpricks were considered positive to anaesthetic effect."}, "guinea pig [2]": {"test_system": "guinea pig", "assay": "Local anesthetic properties, guinea pig wheal method, topical application (Table 1)", "type": "in vivo", "set-up": "key: a positive (+) response is recorded, showing no anesthetic activity; loss in sensation (−)", "conditions": "2% w/w, n = 6"}}, "data": [{"smiles": "CCN(CC)CC(=O)Nc1c(C)cccc1C", "note": "[Lignocaine]", "values": [{"measurement": "Response at 0 minutes after intradermal injection", "setting": "guinea pig [1]; 0 min", "value": "+"}, {"measurement": "Response at 5 minutes after intradermal injection", "setting": "guinea pig [1]; 5 min", "value": "−"}, {"measurement": "Response at 10 minutes after intradermal injection", "setting": "guinea pig [1]; 10 min", "value": "−"}, {"measurement": "Response at 15 minutes after intradermal injection", "setting": "guinea pig [1]; 15 min", "value": "−"}, {"measurement": "Response at 20 minutes after intradermal injection", "setting": "guinea pig [1]; 20 min", "value": "−"}, {"measurement": "Response at 30 minutes after intradermal injection", "setting": "guinea pig [1]; 30 min", "value": "−"}, {"measurement": "Response at 45 minutes after intradermal injection", "setting": "guinea pig [1]; 45 min", "value": "−"}, {"measurement": "Response at 60 minutes after intradermal injection", "setting": "guinea pig [1]; 60 min", "value": "−"}, {"measurement": "Response at 0 minutes after topical application", "setting": "guinea pig [2]; 0 min", "value": "+"}, {"measurement": "Response at 5 minutes after topical application", "setting": "guinea pig [2]; 5 min", "value": "+"}, {"measurement": "Response at 10 minutes after topical application", "setting": "guinea pig [2]; 10 min", "value": "−"}, {"measurement": "Response at 15 minutes after topical application", "setting": "guinea pig [2]; 15 min", "value": "−"}, {"measurement": "Response at 20 minutes after topical application", "setting": "guinea pig [2]; 20 min", "value": "−"}, {"measurement": "Response at 30 minutes after topical application", "setting": "guinea pig [2]; 30 min", "value": "−"}, {"measurement": "Response at 45 minutes after topical application", "setting": "guinea pig [2]; 45 min", "value": "−"}, {"measurement": "Response at 60 minutes after topical application", "setting": "guinea pig [2]; 60 min", "value": "−"}, {"measurement": "Response at 120 minutes after topical application", "setting": "guinea pig [2]; 120 min", "value": "−"}]}]}
